Values of other authors in patent US20230354835A1, “USE OF LIQUID SMOKE IN CONJUNCTION WITH FOOD GRADE COATINGS TO CONTROL PEST INFESTATIONS” (Mississippi State University, priority 2022, published 2023).

Tested on: Tyrophagus putrescentiae
Conditions: Abbar et al., 2016a; coating on ham cubes 2.5×2.5×2.5 cm^3

CC(O)CO (stereo not shown) [100% propylene glycol, 1,2-propanediol]
Inhibition of mite growth on dry-cured ham cubes (in words): effective at inhibiting mite growth
